A short description of data set [1]: Observed water / reaction buffer solubility of ligands. To be noted: for solubility in the reaction buffer: 0.01 M potassium phosphate reaction buffer (pH 7.4); for Observed water solubility: Table 1.
Data set [2] is described as follows: Dynamic light scattering (DLS) of plant VNPs and conjugates. The following applies: purified conjugate particles; (+F127) = COAT/FORMCOAT, (−F127) = uncoated control. Type of data set: physicochemical. The procedure: DLS. The hydrodynamic diameter of native and conjugated plant VNPs was determined by diluting the samples to 1 mg/mL in 0.01 M potassium phosphate buffer (pH 7.4) followed by measurement using a Zetasizer Nano ZSP/Zen5600 instrument (Malvern Panalytical, Malvern, UK). The particle length was calculated as the weighted mean of the intensity distribution.

Data set [3] is described as follows: Aggregation / dispersion of conjugate particles (photograph, DLS, TEM). Type of data set: physicochemical. The following applies: pH 7.4.

Ten molecules from patent publication US20240350422A1, “FORMULATION PROCESS FOR CPMV NANOPARTICLES” (The Regents of the University of California, priority 2021, published 2024) can be followed below.

Where no end group is shown, it is not given here.

For the molecule `CC[C@H](C)[C@H](NC(=O)[C@H](Cc1c[nH]c2ccccc12)NC(=O)CNC(=O)[C@H](CCCNC(=N)N)NC(=O)[C@@H](NC(=O)[C@@H](NC(=O)[C@H](CC(N)=O)NC(=O)[C@H](CO)NC(=O)[C@H](CCCCN)NC(=O)[C@H](CCC(=O)O)NC(=O)[C@@H](NC(=O)[C@H](CO)NC(=O)[C@H](C)NC(=O)[C@H](Cc1ccccc1)NC(=O)CNC(=O)CNC(=O)CNC(=O)[C@@H](N)CS)[C@@H](C)O)[C@@H](C)CC)[C@@H](C)CC)C(=O)N[C@@H](Cc1ccccc1)C(=O)O` [COVID-106], in data set [1], the “solubility in the reaction buffer” value is recorded as “insoluble” and the Observed water solubility entry is “Poor”.

`CSCC[C@H](NC(=O)[C@H](Cc1c[nH]c2ccccc12)NC(=O)[C@H](CO)NC(=O)[C@H](CCCCN)NC(=O)[C@H](CC(N)=O)NC(=O)[C@H](CC(N)=O)NC(=O)[C@H](CCCCN)NC(=O)[C@H](Cc1c[nH]cn1)NC(=O)[C@H](Cc1ccc(O)cc1)NC(=O)[C@H](Cc1ccc(O)cc1)NC(=O)[C@@H](NC(=O)CNC(=O)[C@H](CC(C)C)NC(=O)[C@H](Cc1ccccc1)NC(=O)[C@@H]1CCCN1C(=O)CNC(=O)CNC(=O)CNC(=O)[C@@H](N)CS)C(C)C)C(=O)O` [COVID-153]: in data set [1], the “solubility in the reaction buffer” value is on record as “insoluble” and the Observed water solubility entry is listed as “Poor”.

On to `CC(C)C[C@H](NC(=O)[C@H](Cc1ccc(O)cc1)NC(=O)[C@H](CC(N)=O)NC(=O)[C@H](Cc1ccc(O)cc1)NC(=O)[C@H](CC(N)=O)NC(=O)CNC(=O)CNC(=O)[C@@H](NC(=O)[C@H](CCCCN)NC(=O)[C@H](CO)NC(=O)[C@H](CC(=O)O)NC(=O)[C@H](CC(C)C)NC(=O)[C@H](CC(N)=O)NC(=O)[C@H](CC(N)=O)NC(=O)CNC(=O)CNC(=O)CNC(=O)[C@@H](N)CS)C(C)C)C(=O)N[C@@H](Cc1ccc(O)cc1)C(=O)N[C@@H](CCCNC(=N)N)C(=O)O` [COVID-454], for which, in data set [1], the “solubility in the reaction buffer” value is given as “insoluble” and the Observed water solubility result is reported as “Poor”.

In the case of `CC[C@H](C)[C@H](NC(=O)[C@H](Cc1ccccc1)NC(=O)[C@H](CO)NC(=O)[C@H](CCCNC(=N)N)NC(=O)[C@H](CCCCN)NC(=O)[C@H](CO)NC(=O)[C@@H]1CCCN1C(=O)[C@H](CCCCN)NC(=O)[C@H](CO)NC(=O)[C@@H]1CCCN1C(=O)CNC(=O)CNC(=O)CNC(=O)[C@@H](N)CS)C(=O)N[C@@H](CCC(=O)O)C(=O)N[C@@H](CC(=O)O)C(=O)N[C@@H](CC(C)C)C(=O)N[C@@H](CC(C)C)C(=O)N[C@@H](Cc1ccccc1)C(=O)N[C@@H](CC(N)=O)C(=O)N[C@@H](CCCCN)C(=O)N[C@H](C(=O)O)C(C)C` [COVID-826], in data set [1], the Observed water solubility entry is listed as “Good”.

As to CGGGVFLQKYPHTHLVHQA [Myostatin 1], the Observed water solubility result in data set [1] is reported as “Good”.

For CSGGGDWFKAFYDKVAEKFKEAF [ApoAI-4FN], the Observed water solubility result in data set [1] was “Good”.

With CSGGGWGWSLSHGYQVK [ScG3], the Observed water solubility result in data set [1] is “Good”.

Turning to YQDMVLWKDVFRKNNQLAPVGPSLC [CH401-Rat], in data set [1], the “solubility in the reaction buffer” value is recorded as “insoluble” and the Observed water solubility result is “Poor”.

B1: TMV-Cy5.5 (+F127): Cy5.5 conjugated to TMV lysines via NHS ester, COAT method; Table 4 row Cy5.5 NHS (+F127) (conjugate, UniProt P69687 2-159, looked up)
Capsid protein: SYSITTPSQFVFLSSAWADPIELINLCTNALGNQFQTQQARTVVQRQFSEVWKPSPQVTVRFPDSDFKVYRYNAVLDPLVTALLGAFDTRNRIIEVENQANPTTAETLDATRRVDDATVAIRSAINNLIVELIRGTGSYNRSSFESSSGLVWTSGPAT
modifications: Cy5.5 dye, F127 coated virion
In data set [2], B1 registered a PDI of 0.236 and a Z-average of 277.6 nm. Moreover, the “aggregation / dispersion of the particles” value in data set [3] was “dispersed and soluble, with no visible signs of aggregation”.

B2: TMV-Cy5.5 (−F127): Cy5.5 conjugated to uncoated TMV, control; Table 4 row Cy5.5 NHS (−F127) (conjugate, UniProt P69687 2-159, looked up)
Capsid protein: SYSITTPSQFVFLSSAWADPIELINLCTNALGNQFQTQQARTVVQRQFSEVWKPSPQVTVRFPDSDFKVYRYNAVLDPLVTALLGAFDTRNRIIEVENQANPTTAETLDATRRVDDATVAIRSAINNLIVELIRGTGSYNRSSFESSSGLVWTSGPAT
modifications: Cy5.5 dye on whole virion
Take B2: in data set [2], the PDI was 0.749 and the Z-average came to 436.8 nm. For the same molecule, the “aggregation / dispersion of the particles” value in data set [3] is reported as “prone to aggregation”.
